US20190389882A1, “INHIBITORS OF BETA SECRETASE” (Janssen Pharmaceutica NV, priority 2017, published 2019)

Tests used:
[1] = target: T1, recombinant BACE1 protein (Homo sapiens, UniProt P56817); experiment: BACE1 biochemical FRET based assay; settings: 450 min at room temperature; for IC50: pH 5.0, read-out: Biochemical FRET based assay pIC50 (converted)
T1 construct: recombinant BACE1 protein in a final concentration of 0.04 μg/ml
From the text: (§1) This assay is a Fluorescence Resonance Energy Transfer Assay (FRET) based assay. The substrate for this assay is an APP derived 13 amino acids peptide that contains the ‘Swedish’ Lys-Met/Asn-Leu mutation of the amyloid precursor protein (APP) beta-secretase cleavage site. This substrate also contains two fluorophores: (7-methoxycoumarin-4-yl) acetic acid (Mca) is a fluorescent donor with excitation wavelength at 320 nm and emission at 405 nm and 2,4-Dinitrophenyl (Dnp) is a proprietary quencher acceptor. […] Upon cleavage by BACE1, the fluorophore Mca is separated from the quenching group Dnp, restoring the full fluorescence yield of the donor. The increase in fluorescence is linearly related to the rate of proteolysis.
Briefly in a 384-well format recombinant BACE1 protein in a final concentration of 0.04 μg/ml is incubated for 450 minutes at room temperature with 20 μM substrate in incubation buffer (50 mM Citrate buffer pH 5.0, 0.05% PEG) in the presence of compound or DMSO. Next the amount of proteolysis is directly measured by fluorescence measurement (excitation at 320 nm and emission at 405 nm) at different incubation times (0, 30, 60, 90, 120 and 450 min). For every experiment a time curve (every 30 min between 0 min and 120 min) is used to determine the time where we find the lowest basal signal of the high control. The signal at this time (Tx) is used to subtract from the signal at 450 min. Results are expressed in RFU, as difference between T450 and Tx.
(§2) A best-fit curve is fitted by a minimum sum of squares method to the plot of % Controlmin versus compound concentration. From this an IC50 value (inhibitory concentration causing 50% inhibition of activity) can be obtained.

[2] = target: β-secretase I (BACE1) (Homo sapiens, UniProt P56817); experiment: Automated (CyclOps) biochemical assay BACE1
Sequence of β-secretase I (BACE1) (P56817 46-501): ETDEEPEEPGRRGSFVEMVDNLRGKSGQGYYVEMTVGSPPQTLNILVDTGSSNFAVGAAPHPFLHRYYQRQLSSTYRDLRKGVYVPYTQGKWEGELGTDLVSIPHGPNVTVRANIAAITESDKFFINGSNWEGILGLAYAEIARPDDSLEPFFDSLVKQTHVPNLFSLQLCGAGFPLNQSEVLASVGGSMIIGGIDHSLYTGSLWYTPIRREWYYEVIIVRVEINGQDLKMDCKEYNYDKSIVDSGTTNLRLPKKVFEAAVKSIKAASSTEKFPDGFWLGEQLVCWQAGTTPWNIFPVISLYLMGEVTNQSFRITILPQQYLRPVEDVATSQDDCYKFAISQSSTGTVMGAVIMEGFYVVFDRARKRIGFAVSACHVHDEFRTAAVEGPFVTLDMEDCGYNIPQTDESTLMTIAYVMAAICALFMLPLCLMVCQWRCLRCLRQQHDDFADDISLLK

[3] = system: Abeta 1-42 produced and secreted by human neuroblastoma SKNBE2 cells expressing hAPP695; experiment: Cellular αLisa assay in SKNBE2 cells, Abeta 1-42; format: cell-based; settings: 18 hours incubation; for IC50: Homo sapiens, SKNBE2, 18 h, read-out: Cellular αLisa assay in SKNBE2 cells Abeta 42 pIC50 (converted)
Experimental: (§3) Cellular αLisa Assay in Sknbe2 Cells In two αLisa assays the levels of Abeta total and Abeta 1-42 produced and secreted into the medium of human neuroblastoma SKNBE2 cells are quantified. The assay is based on the human neuroblastoma SKNBE2 expressing the wild type Amyloid Precursor Protein (hAPP695). The compounds are diluted and added to these cells, incubated for 18 hours and then measurements of Abeta 1-42 and Abeta total are taken. Abeta total and Abeta 1-42 are measured by sandwich αLisa. αLisa is a sandwich assay using biotinylated antibody AbN/25 attached to streptavidin coated beads and antibody Ab4G8 or cAb42/26 conjugated acceptor beads for the detection of Abeta total and Abeta 1-42 respectively. In the presence of Abeta total or Abeta 1-42, the beads come into close proximity. The excitation of the donor beads provokes the release of singlet oxygen molecules that trigger a cascade of energy transfer in the acceptor beads, resulting in light emission. Light emission is measured after 1 hour incubation (excitation at […] and emission at 615 nm).
as §2

[4] = system: Abeta total produced and secreted by human neuroblastoma SKNBE2 cells expressing hAPP695; experiment: Cellular αLisa assay in SKNBE2 cells, Abeta total; format: cell-based; settings: 18 hours incubation, read-out: Cellular αLisa assay in SKNBE2 cells Abeta total pIC50 (converted)
Experimental: as §3, §2

[5] = target: T2, β-secretase II (BACE2) (Homo sapiens, UniProt Q9Y5Z0); experiment: Automated (CyclOps) biochemical assay BACE2
T2 sequence (Q9Y5Z0 63-518): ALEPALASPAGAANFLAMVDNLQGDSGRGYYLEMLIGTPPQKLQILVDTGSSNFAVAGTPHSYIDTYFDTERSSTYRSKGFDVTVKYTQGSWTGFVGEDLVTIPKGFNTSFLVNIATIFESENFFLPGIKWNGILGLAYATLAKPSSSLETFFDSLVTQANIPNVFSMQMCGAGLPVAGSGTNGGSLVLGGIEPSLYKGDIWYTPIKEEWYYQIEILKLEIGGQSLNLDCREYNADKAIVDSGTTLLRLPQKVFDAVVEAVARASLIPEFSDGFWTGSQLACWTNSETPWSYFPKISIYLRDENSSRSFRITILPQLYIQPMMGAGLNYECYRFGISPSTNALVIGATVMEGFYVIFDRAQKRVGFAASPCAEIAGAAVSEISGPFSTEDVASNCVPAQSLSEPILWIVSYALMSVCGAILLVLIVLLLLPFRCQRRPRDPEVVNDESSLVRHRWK

[6] = target: T3, recombinant BACE2 protein (Homo sapiens, UniProt Q9Y5Z0); experiment: BACE2 biochemical FRET based assay; settings: 450 min at room temperature; for IC50: pH 5.0, read-out: Biochemical FRET based assay pIC50 (converted)
T3 construct: recombinant BACE2 protein in a final concentration of 0.4 μg/ml
T3 sequence (Q9Y5Z0 63-518): T2 sequence (Q9Y5Z0 63-518)
From the text: as §1, with “assay” for “assay is an APP derived 13 amino acids peptide that”, “the beta-secretase,” for “BACE1,”
Briefly in a 384-well format recombinant BACE2 protein in a final concentration of 0.4 μg/ml is incubated for 450 minutes at room temperature with […] substrate in incubation buffer (50 mM Citrate buffer pH 5.0, 0.05% PEG, no DMSO) in the absence or presence of compound. Next the amount of proteolysis is directly measured by fluorescence measurement at T=0 and T=450 (excitation at 320 nm and emission at 405 nm). Results are expressed in RFU (Relative Fluorescence Units), as difference between T450 and TO.
as §2

T1 sequence (P56817 46-501): as the sequence (P56817 46-501) above

COc1ncc(C(=O)N2CCOCC2)c2c1CC1(c3ccc(F)cc3F)N=C(N)SCC1C2 (stereo not shown) [Compound 2a]
IC50 [1]: 240 nM
IC50 [2]: 57.5 nM
IC50 [3]: 46.8 nM
IC50 [4]: 50.1 nM
IC50 [5]: 324 nM
IC50 [6]: 1450 nM

COc1ncc(C(=O)NC2CC2)c2c1C[C@]1(c3ccc(F)cc3F)N=C(N)SC[C@@H]1C2 [Compound 1]
Biochemical FRET based assay pIC50 ([1]; pH 5.0): 7.12
IC50 [3]: 9.55 nM
Biochemical FRET based assay pIC50 ([6]; pH 5.0): 6.77

COc1ncc(CNC(=O)c2cc(C)no2)c2c1C[C@]1(c3ccc(F)cc3F)N=C(N)SC[C@@H]1C2 [Compound 32a]
IC50 [1]: 182 nM
IC50 [2]: 63.1 nM
Cellular αLisa assay in SKNBE2 cells Abeta 42 pIC50 [3]: 7.07
IC50 [4]: 95.5 nM
IC50 [5]: 174 nM
IC50 [6]: 589 nM

COc1ncc(C(=O)N2CCC(C#N)CC2)c2c1C[C@]1(c3ccc(F)cc3F)N=C(N)SC[C@@H]1C2 [Compound 22]
IC50 [1]: 129 nM
IC50 [2]: 34.7 nM
IC50 [3]: 85.1 nM
IC50 [5]: 355 nM
IC50 [6]: 1100 nM

COc1ncc(CNC(=O)c2nccnc2Cl)c2c1C[C@]1(c3ccc(F)cc3F)N=C(N)SC[C@@H]1C2 [Compound 48]
IC50 [1]: 21.9 nM
IC50 [2]: 12.2 nM
IC50 [3]: 16.6 nM
IC50 [5]: 72.4 nM
IC50 [6]: 200 nM

COc1ncc(CNC(=O)C2CC2)c2c1C[C@]1(c3ccc(F)cc3F)N=C(N)SC[C@@H]1C2 [Compound 31]
IC50 [1]: 81.3 nM
IC50 [3]: 33.1 nM
IC50 [6]: 105 nM

COc1ncc(C(=O)N2CCOCC2)c2c1C[C@]1(c3ccc(F)cc3F)N=C(N)SC[C@@H]1C2 [Compound 2]
IC50 [1]: 219 nM
IC50 [3]: 47.9 nM
IC50 [6]: 1510 nM

COc1ncc(CNC(=O)C2CC2)c2c1C[C@]1(c3ccc(F)cc3F)N=C(N)SC[C@@H]1C2 [Compound 31a]
IC50 [1]: 112 nM
IC50 [2]: 70.8 nM
Cellular αLisa assay in SKNBE2 cells Abeta 42 pIC50 [3]: 7.39
IC50 [4]: 43.7 nM
IC50 [5]: 87.1 nM
IC50 [6]: 126 nM

COc1ncc(CNC(=O)c2ccncc2)c2c1C[C@]1(c3ccc(F)cc3F)N=C(N)SC[C@@H]1C2 [Compound 30a]
IC50 [1]: 66.1 nM
IC50 [2]: 41.7 nM
Cellular αLisa assay in SKNBE2 cells Abeta 42 pIC50 [3]: 7
IC50 [4]: 81.3 nM
IC50 [5]: 468 nM
IC50 [6]: 692 nM

COc1ncc(CNC(=O)c2ccncc2)c2c1C[C@]1(c3ccc(F)cc3F)N=C(N)SC[C@@H]1C2 [Compound 30]
IC50 [1]: 29.5 nM
Cellular αLisa assay in SKNBE2 cells Abeta 42 pIC50 [3]: 7.31
IC50 [6]: 355 nM

COc1ncc(C(=O)Nc2cccnc2)c2c1C[C@]1(c3ccc(F)cc3F)N=C(N)SC[C@@H]1C2 [Compound 3]
IC50 [1]: 75.9 nM
IC50 [3]: 56.2 nM
IC50 [6]: 282 nM

COc1ncc(CNC(=O)c2cc(C)no2)c2c1C[C@]1(c3ccc(F)cc3F)N=C(N)SC[C@@H]1C2 [Compound 32]
IC50 [1]: 110 nM
Cellular αLisa assay in SKNBE2 cells Abeta 42 pIC50 [3]: 7.41
IC50 [6]: 309 nM

COc1ncc(C(=O)N2CCC(c3ccncc3)C2)c2c1C[C@]1(c3ccc(F)cc3F)N=C(N)SC[C@@H]1C2 (stereo partly shown) [Compound 28]
IC50 [1]: 20.4 nM
IC50 [3]: 28.8 nM
IC50 [6]: 977 nM

COc1ncc(C(=O)NC2CC2)c2c1C[C@]1(c3ccc(F)cc3F)N=C(N)SC[C@@H]1C2 [Compound 1a]
IC50 [1]: 66.1 nM
IC50 [2]: 39.8 nM
IC50 [3]: 19.1 nM
IC50 [4]: 22.9 nM
IC50 [5]: 72.4 nM
IC50 [6]: 166 nM
